Results published in patent publication US20130029970A1 (priority 2009, published 2013).
Read-outs that look alike come from different tables or passages of the source.

Experiments:
[1] = target: T1, recombinant human cannabinoid receptor CB2 (Homo sapiens, UniProt P34972); test: Cannabinoid receptor radioligand binding assay, [3H]-CP 55,940 displacement, hCB2
T1 construct: (cDNA clone) CNR0200000
Experimental: Membranes were isolated from transfected cells as follows. Monolayers of cultured cells were washed twice with phosphate-buffered saline (PBS). […] Homogenates were centrifuged 10 minutes at 1000×g at 4° C. The supernatant was collected and was centrifuged for 1 hour at 40,000×g. The supernatant was then decanted and the resulting pellet was re-suspended in 20 mM HEPES, pH 7.4, 5 mM MgCl2, 1 mM EDTA, 10% sucrose with complete cocktail protease inhibitors. Protein concentration of membrane suspensions were measured by Bradford Protein Assay using bovine serum albumin as the standard (BioRad catalog #500-0006). Protein concentrations of membrane suspensions were adjusted with the final buffer in the range of 5 to 10 mg/mL and were stored at −80° C. until further use.
A rapid filtration technique using Millipore FB filter plates (Catalog #MADVNOB) and filtration apparatus (Millipore system Catalog MAVM0960R) with vacuum aspiration was used to harvest and rinse labeled membranes (8 times with 0.2 mL of chilled binding buffer). […] Binding data were analyzed using GraphPad Prism (GraphPad Software, Inc. San Diego, Calif.).

human CB1 receptors = target: T2, human CB1 receptors (Homo sapiens, UniProt P21554); test: cAMP assay in HEK-293 cells, hCB1 agonist; format: cell-based; settings: inhibition of forskolin-stimulated cAMP, HEK-293 cells
T2 construct: (cDNA clone) CNR01L000
Source text: (§1) Stable, HEK-293-derived cell lines that recombinantly express hCBI or hCB2 were established. In brief, the clone hCB1 (CNR IL) or hCB2 (CNR2) was transfected into human embryonic kidney cells (HEK-293) using Lipofectamine 2000 (Gibco, Cat#11668-019) according to the manufacturer's protocol. Transfected clones were isolated by single colony purification and clones were screened for receptor expression using a whole cell, ^3H—CP 55,940 radioligand binding assay. HEK-293 stable cells were maintained in Dulbecco's modified Eagles medium (DMEM) containing 10% fetal bovine serum, 2 mM L-glutamine and 0.5 mg/mL G-418.
(§2) Functional assays which monitor G-protein coupled receptor or downstream cellular responses can be used to characterize potential CB1 receptor and/or CB2 receptor agonist or antagonist activities. Direct activation (or inhibition of activation) can be monitored using a GTPγS assay (membrane-based assay) or cAMP assay (whole cell-based assay).
(§3) cAMP assays were performed in HEK-293 cells stably expressing human CB1 or CB2 receptors. For cannabinoid receptor functional assays measuring agonist effects on cellular cAMP levels, monolayers of cultured cells were harvested with enzyme-free PBS-based cell dissociation buffer (Gibco, Cat#13151-04). Cells suspensions were centrifuged and the cells were washed once with PBS, were centrifuged again, and the cells were re-suspended in HBSS (Hank's Balanced Salt Solution, Cellgro, Cat #21-022-CV) solution containing 10 mM HEPES and 0.1% fatty acid free BSA (Sigma, Cat #A0281). Cell suspensions were prepared at 1,500,000 cells per ml. Stock solutions of test substances (10 mM) in DMSO were diluted to 1 mM using 30% DMSO as diluent. Test substances of solutions (1 mM) were further diluted down to 3× of final assay concentrations in the above HBSS buffer containing 0.1% BSA in the presence of 90 uM forskolin (Sigma Cat#F6886). To perform the assay, 20 uL of cell suspension (1,500,000 cells/mL) were added to each well in 96 well plate and treated with 10 uL test substance solution diluted as described above. Cells and compounds were incubated at 37° C. for 30 minutes. Cells were lysed and cAMP concentration was measured using DiscoveRx −XS+ cAMP assay kit (DiscoveRx Corporation Ltd., Fremont, Calif., USA, Cat #90-0075-03), following the manufacturer's protocol. GraphPad Prism software was used to calculate EC50 values using sigmoidal dose response curve fitting. The maximal amount of cAMP produced by forskolin was defined as 100%. CB1 or CB2 agonists reduced forskolin-stimulated cAMP signaling. The EC50 value of an agonist compound was defined as the concentration at which 50% of the forskolin-stimulated cAMP synthesis was inhibited.

[2] = target: T3, recombinant human cannabinoid receptor CB1 (Homo sapiens, UniProt P21554); test: Cannabinoid receptor radioligand binding assay, [3H]-CP 55,940 displacement, hCB1
T3 construct: (cDNA clone) CNR01L000
Source text: as §1
Membranes were isolated from transfected cells as follows. Monolayers of cultured cells were washed twice with phosphate-buffered saline (PBS). Cells were scraped into 20 mM HEPES, pH 7.4, 10 mM EDTA containing complete cocktail protease inhibitors (Roche, Catalog #11 697 498 001) and were homogenized by an electric-powered mechanical probe homogenizer (Omni GLH; probe G7-195S) for 40 seconds at 7000 rpm. Homogenates were centrifuged 10 minutes at 1000×g at 4° C. The supernatant was collected and was centrifuged for 1 hour at 40,000×g. The supernatant was then decanted and the resulting pellet was re-suspended in 20 mM HEPES, pH 7.4, 5 mM MgCl2, 1 mM EDTA, 10% sucrose with complete cocktail protease inhibitors. Protein concentration of membrane suspensions were measured by Bradford Protein Assay using bovine serum albumin as the standard (BioRad catalog #500-0006). Protein concentrations of membrane suspensions were adjusted with the final buffer in the range of 5 to 10 mg/mL and were stored at −80° C. until further use.
Radioligand binding assays were performed by incubating membranes (2-10 μg protein) prepared from HEK-293 cells expressing recombinant human cannabinoid receptors, CB1 or CB2, at room temperature with 0.5 nM cannabinoid receptor agonist, [^3H]-CP 55,940 (Perkin Elmer, catalog #NET1051) in 0.2 mL of binding buffer (50 mM Tris-HCl, pH 7.5, 5 mM MgCl2, 2.5 mM EDTA) and 0.1% fatty acid free bovine serum albumin (Sigma Cat. #A0821) for 90 minutes. A rapid filtration technique using Millipore FB filter plates (Catalog #MADVNOB) and filtration apparatus (Millipore system Catalog MAVM0960R) with vacuum aspiration was used to harvest and rinse labeled membranes (8 times with 0.2 mL of chilled binding buffer). The radioactivity bound to the filters was counted with 0.05 mL of liquid scintillant (UltraGold MV, PerkinElmer catalog #6013159) in a scintillation counter (Perkin Elmer Microbeta instrument). Nonspecific binding was determined in the presence of unlabeled 1 μM CP 55,940 (Sigma Aldrich, catalog #C1112). Binding data were analyzed using GraphPad Prism (GraphPad Software, Inc. San Diego, Calif.).

human CB2 receptors = target: T4, human CB2 receptors (Homo sapiens, UniProt P34972); test: cAMP assay in HEK-293 cells, hCB2 agonist; format: cell-based; settings: for hCB2 EC50 (cAMP ag, nM): inhibition of forskolin-stimulated cAMP, HEK-293 cells
T4 construct: (cDNA clone) CNR0200000
Experimental: as §2
as §3, with “For cannabinoid receptor functional assays measuring agonist effects on cellular cAMP levels, monolayers of cultured cells were harvested with enzyme-free PBS-based cell dissociation buffer (Gibco, Cat#13151-04).” left out, “100%.” for “100%. CB1 or CB2 agonists reduced forskolin-stimulated cAMP signaling. The EC50 value of an agonist compound was defined as the concentration at which 50% of the forskolin-stimulated cAMP synthesis was inhibited.”

[3] = displacement of 0.5 nM [3H]-CP 55,940, read-out: hCB2 IC50 (CP displ)
[4] = displacement of 0.5 nM [3H]-CP 55,940, read-out: hCB1 IC50 (CP displ)

T1 sequence (P34972 whole entry): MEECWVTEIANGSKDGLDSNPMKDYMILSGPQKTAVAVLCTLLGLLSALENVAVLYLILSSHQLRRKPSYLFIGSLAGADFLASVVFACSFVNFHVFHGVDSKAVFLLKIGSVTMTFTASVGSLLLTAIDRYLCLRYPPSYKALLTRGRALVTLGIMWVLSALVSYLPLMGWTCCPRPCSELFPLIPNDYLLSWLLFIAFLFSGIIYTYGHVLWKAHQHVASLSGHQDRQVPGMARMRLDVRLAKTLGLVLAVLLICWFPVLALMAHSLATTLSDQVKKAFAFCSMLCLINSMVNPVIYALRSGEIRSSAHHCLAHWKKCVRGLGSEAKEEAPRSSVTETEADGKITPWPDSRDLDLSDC
T4 sequence (P34972 whole entry): as above
T2 sequence (P21554 whole entry): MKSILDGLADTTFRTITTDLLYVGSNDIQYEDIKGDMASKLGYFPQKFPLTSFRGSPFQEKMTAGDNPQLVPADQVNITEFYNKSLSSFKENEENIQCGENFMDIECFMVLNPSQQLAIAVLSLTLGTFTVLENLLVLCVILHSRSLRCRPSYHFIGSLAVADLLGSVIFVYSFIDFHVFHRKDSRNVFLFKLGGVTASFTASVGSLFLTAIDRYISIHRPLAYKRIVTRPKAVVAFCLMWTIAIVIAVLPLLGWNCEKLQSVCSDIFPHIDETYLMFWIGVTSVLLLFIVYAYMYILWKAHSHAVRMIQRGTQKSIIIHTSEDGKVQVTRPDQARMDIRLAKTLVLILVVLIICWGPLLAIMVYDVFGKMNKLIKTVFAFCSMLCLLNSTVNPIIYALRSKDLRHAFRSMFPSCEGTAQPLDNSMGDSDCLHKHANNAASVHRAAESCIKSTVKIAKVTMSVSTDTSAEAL
T3 sequence (P21554 whole entry): as above

**Q.** Which results are given for `Cc1cc2cc(C(=O)c3cccc(Cl)c3Cl)sc2[nH]1` [Compound 2, (2,3-dichlorophenyl)(5-methyl-6H-thieno[2,3-b]pyrrol-2-yl)methanone]?
**A.** IC50 [1, 3]: 1 to 10 µM; hCB1 EC50 (cAMP ag, nM) (human CB1 receptors): NS (NS means “Not Significant,” which means less than 30% agonist activity when compared to the positive control.); IC50 [2, 4]: > 10 µM; EC50 (human CB2 receptors): 1 to 10 µM

**Q.** What does the source list for `Cc1cc2cc(C(=O)c3cccnc3)sc2n1CCN1CCOCC1` [Compound 14, (5-Methyl-6-(2-morpholinoethyl)-6H-thieno[2,3-b]pyrrol-2-yl)(pyridin-3-yl)methanone]?
**A.** IC50 [1]: 1 to 10 µM; hCB1 EC50 (cAMP ag, nM) (human CB1 receptors): NS (NS means “Not Significant,” which means less than 30% agonist activity when compared to the positive control.); IC50 [2]: > 10 µM; EC50 (human CB2 receptors): 0.1 to 1 µM

**Q.** Which results are given for `Cc1cc2cc(C(=O)c3ccccn3)sc2n1CCN1CCOCC1` [Compound 16]?
**A.** IC50 [1]: 1 to 10 µM; hCB1 EC50 (cAMP ag, nM) (human CB1 receptors): NS (NS means “Not Significant,” which means less than 30% agonist activity when compared to the positive control.); IC50 [2]: > 10 µM; EC50 (human CB2 receptors): 0.1 to 1 µM

**Q.** With `Cc1cc2cc(C(=O)c3cccc(Cl)c3Cl)sc2n1CC(=O)N1CCOCC1` [Compound 22, 2-(2-(2,3-Dichlorobenzoyl)-5-methyl-6H-thieno[2,3-b]pyrrol-6-yl)-1-morpholinoethanone] as the compound, how does the IC50 [1] read?
**A.** The IC50 was 1 to 10 µM.

**Q.** What about the EC50 (human CB1 receptors; read-out: hCB1 EC50 (cAMP ag)) of the same compound?
**A.** The EC50 was 0.1 to 1 µM.

**Q.** What about the IC50 [2] of the same compound?
**A.** The IC50 was over 10 µM.

**Q.** What about the EC50 (human CB2 receptors) of the same compound?
**A.** Its EC50 is 0.1 to 1 µM.

**Q.** How did the IC50 [1, 3] turn out when `Cc1cc2cc(C(=O)c3ccncn3)sc2n1CCN1CCOCC1` [Compound 34, (5-Methyl-6-(2-morpholinoethyl)-6H-thieno[2,3-b]pyrrol-2-yl)(pyrimidin-4-yl)methanone] was run?
**A.** Its IC50 is over 10 µM.

**Q.** And the “hCB1 EC50 (cAMP ag, nM)” value (human CB1 receptors)?
**A.** The value was “NS (NS means “Not Significant,” which means less than 30% agonist activity when compared to the positive control.)”.

**Q.** And the IC50 [2, 4]?
**A.** Its IC50 is over 10 µM.

**Q.** And the EC50 (human CB2 receptors)?
**A.** The EC50 was 1 to 10 µM.

**Q.** What does the source list for `Cc1cc2cc(C(=O)c3ccncc3)sc2n1CCN1CCOCC1` [Compound 40, (5-Methyl-6-(2-morpholinoethyl)-6H-thieno[2,3-b]pyrrol-2-yl)(pyridin-4-yl)methanone]?
**A.** IC50 [1]: 1 to 10 µM; hCB1 EC50 (cAMP ag, nM) (human CB1 receptors): NS (NS means “Not Significant,” which means less than 30% agonist activity when compared to the positive control.); IC50 [2]: > 10 µM; EC50 (human CB2 receptors): 0.1 to 1 µM

**Q.** For `COc1ccc(C(=O)c2cc3cc(C)n(CCC(=O)O)c3s2)cc1` [Compound 73, 3-(2-(4-Methoxybenzoyl)-5-methyl-6H-thieno[2,3-b]pyrrol-6-yl)propanoic acid], which IC50 [1, 3] is on record?
**A.** Its IC50 is over 10 µM.

**Q.** And the “hCB1 EC50 (cAMP ag, nM)” value (human CB1 receptors)?
**A.** Its value is “NS (NS means “Not Significant,” which means less than 30% agonist activity when compared to the positive control.)”.

**Q.** What about the IC50 [2, 4] of the same compound?
**A.** Its IC50 is over 10 µM.

**Q.** And the “hCB2 EC50 (cAMP ag, nM)” value (human CB2 receptors)?
**A.** The value was “NS (NS means “Not Significant,” which means less than 30% agonist activity when compared to the positive control.)”.

**Q.** Which results are given for `CCS(=O)(=O)NCCCn1c(C)cc2cc(C(=O)c3ccc(OC)cc3)sc21` [Compound 74, N-(3-(2-(4-Methoxybenzoyl)-5-methyl-6H-thieno[2,3-b]pyrrol-6-yl)propyl)ethanesulfonamide]?
**A.** IC50 [1]: 1 to 10 µM; hCB1 EC50 (cAMP ag, nM) (human CB1 receptors): NS (NS means “Not Significant,” which means less than 30% agonist activity when compared to the positive control.); IC50 [2]: > 10 µM; EC50 (human CB2 receptors): 0.1 to 1 µM

**Q.** What does the source list for `COc1ccc(C(=O)c2cc3cc(C)[nH]c3s2)c(Cl)c1` [Compound 79, (2-Chloro-4-methoxyphenyl)(5-methyl-6H-thieno[2,3-b]pyrrol-2-yl)methanone]?
**A.** IC50 [1]: > 10 µM; hCB1 EC50 (cAMP ag, nM) (human CB1 receptors): NS (NS means “Not Significant,” which means less than 30% agonist activity when compared to the positive control.); IC50 [2]: > 10 µM; EC50 (human CB2 receptors): 0.1 to 1 µM

**Q.** For `COc1ccc(C(=O)c2cc3cc(C)n(CCCNS(=O)(=O)c4ccccc4)c3s2)cc1` [Compound 81, N-(3-(2-(4-Methoxybenzoyl)-5-methyl-6H-thieno[2,3-b]pyrrol-6-yl)propyl)benzenesulfonamide], which IC50 [1, 3] is on record?
**A.** The IC50 was 1 to 10 µM.

**Q.** What about the “hCB1 EC50 (cAMP ag, nM)” value (human CB1 receptors) of the same compound?
**A.** Its value is “NS (NS means “Not Significant,” which means less than 30% agonist activity when compared to the positive control.)”.

**Q.** And the IC50 [2, 4]?
**A.** Its IC50 is over 10 µM.

**Q.** And the “hCB2 EC50 (cAMP ag, nM)” value (human CB2 receptors)?
**A.** The value was “NS (NS means “Not Significant,” which means less than 30% agonist activity when compared to the positive control.)”.

**Q.** Which IC50 [1, 3] does the source give for `COc1ccc(C(=O)c2cc3cc(C)n(CCN4CCOCC4=O)c3s2)cn1` [Compound 148, 4-(2-(2-(6-methoxynicotinoyl)-5-methyl-6H-thieno[2,3-b]pyrrol-6-yl)ethyl)morpholin-3-one] here?
**A.** Its IC50 is over 10 µM.

**Q.** And the “hCB1 EC50 (cAMP ag, nM)” value (human CB1 receptors)?
**A.** Its value is “NS (NS means “Not Significant,” which means less than 30% agonist activity when compared to the positive control.)”.

**Q.** And the IC50 [2, 4]?
**A.** The IC50 was over 10 µM.
